Patent publication US6287787A, “Dimeric oligopeptide mixture sets” (Torrey Pines Institute for Molecular Studies, priority 1993, dated 2001)
Where a SMILES comes first, the peptide text is derived from it. Bridges are numbered along the chain shown (N, C = ends). Roman numbers before positions name the chains, in order. [ ]: non-standard residue; d: D form. Met(O) = CS(=O)CC[C@H](N)C(=O)O

Target: T1, trypsin (bovine pancreas trypsin, Type I) (Bos taurus, UniProt P00760)
T1 construct: purchased Sigma Chemicals T 8003; host or cells: bovine pancreas
T1 sequence (P00760 24-246): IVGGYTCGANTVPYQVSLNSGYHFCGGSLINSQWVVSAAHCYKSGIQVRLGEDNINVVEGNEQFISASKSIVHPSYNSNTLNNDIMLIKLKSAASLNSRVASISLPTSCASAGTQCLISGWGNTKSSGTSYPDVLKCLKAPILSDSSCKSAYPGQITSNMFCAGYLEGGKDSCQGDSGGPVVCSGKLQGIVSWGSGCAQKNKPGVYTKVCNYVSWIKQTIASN
Assay: Competitive inhibition of tryptic hydrolysis of Nα-benzoyl-D,L-arginine-p-nitroanilide
Assay type: biochemical
Method: The inhibition observed was 55 percent at 5 mg/ml.
For these assays, 50 μl of dimeric oligopeptide mixture set solutions in water (0.5-5 mM) were added to 0.1 M Tris-HCl containing 0.025 M CaCl2, pH 7.8 (100 μl), to which were added 15 μl of trypsin (bovine pancreas trypsin, Type I; Sigma Chemicals T 8003; 0.05 mg/ml in 0.02 N HCl ). The solution was maintained for 30 minutes, and the above substrate (N^α -benzoyl-D,L-arginine-p-nitroanitide) was added (100 μl, 1 mg/ml in water). Absorbances at 405 nm were read using a Titertek multichannel photometer after another 30 minutes had elapsed and were expressed as a percentage of the control (absorbance of a solution without peptide).

Q: For `CC(=O)N[C@@H](CC[S+](C)[O-])C(=O)N[C@@H](CSSC[C@H](NC(=O)[C@H](CC[S+](C)[O-])NC(C)=O)C(=O)N[C@@H](Cc1c[nH]c2ccccc12)C(=O)N[C@@H](CCCNC(=N)N)C(N)=O)C(=O)N[C@@H](Cc1c[nH]c2ccccc12)C(=O)N[C@@H](CCCNC(=N)N)C(N)=O` (stereo partly shown) [SEQ ID NO:4] (I: Ac-[Met(O)]CWR-NH2 / II: Ac-[Met(O)]CWR-NH2; disulfide I:2-II:2), which IC50 is on record?
A: 53 µM
